Reference: patent publication US6858723B1, “Amphiphile cyclodextrins, preparation and use thereof for solubilizing organized systems and incorporating hydrophobic molecules” (Commissariat a l'Energie Atomique, priority 1999, dated 2005)

What was measured:
Format in all cases: physicochemical
[1] = neutron diffusion of nanoparticles loaded with hydrophobic compounds
Description: FIG. 7 represents the neutron diffusion spectra obtained with: • the solution of nanoparticles of cyclodextrin according to example 1 and the fatty acid (1:0.5 eq. mol) (spectrum 9); • the solution of nanoparticles of cyclodextrin according to example 1 and the fatty acid (1:1 eg. mol) (spectrum 10); and • the solution of nanoparticles of cyclodextrin alone (spectrum 11).
In this figure, the theoretical spectrum (spectrum 12) simulating spheres has also been represented.
The intensity I(q) is increased. The Intensity I(q) is proportional to the volume of nanoparticles. The presence of additional molecules (fatty acid molecules) in the nanoparticles increases the value of the contrast and therefore the intensity.
The incorporation in mono-6-(cholest-5-en-3α-ylamide)succinylamide-6-deoxy-2,2′,2″,2′″,2″″,2′″″,2″″″,6′,6″,6′″, 6″″,6′″″,6″″″-trideca-O-methyl-cyclomaltoheptaose nanoparticles of the following hydrophobic compounds: • dothiepin (neurotrope), • chloramphenicol (bacteriostatic), • vitamin A, and • esculin (vascular wall tonic), • were also detected by neutron diffusion. References

[2] = cmc by surface tension measurements
Description: The cmc of the cyclodextrin in example 1 was determined with surface tension measurements. The value of the cmc is 9.10^−6 mol/l.

[3] = static light diffusion of aqueous nanoparticle solutions
Description: The mean hydrodynamic diameter of the nanoparticles was measured by quasi-elastic light diffusion. The mean diameter MD value calculated according to the Stokes-Einstein approximation based on the interaction-free perfect sphere model is […] (60 Å). The static light diffusion analysis of aqueous solutions of nanoparticles at different concentrations (2.5.10^−3, 5.10^−3 and 10^−2 mol/l) gives a mean aggregate mass of 43,000 g/mol, which is equivalent to a mean of 24 monomers per nanoparticle.

[4] = neutron diffusion of nanoparticle solution; settings: 10^−2 mol/l in D2O
Description: The diffusion spectrum obtained from a 10^−2 mol/l solution in D2O of the cyclodextrin derivative in example 1 is represented in FIG. 1 (spectrum 1).
In FIG. 1, the theoretical spectra simulating spheres (spectrum 2), cylinders (spectrum 3) or lamellae (spectrum 4) formed from the cyclodextrin derivative in example 1, at a concentration of 10^−2 mol/l in D2O, are also shown. […] These aggregates are lined on the surface with cyclodextrin cavities available for the inclusion of hydrophobic active molecules, the core being composed of cholesterol groups. The theoretical spectrum simulating spheres gives a mean diameter of […] (50 Å) and a mean number of monomers per nanoparticle of 24.

Row | Molecule | incorporation in nanoparticles of the cyclodextrin of example 1 [1] | further results
1 | CC(CCCCCCCCCCCCCI)CC(=O)O (stereo not shown) [16-iodo-3-methylhexadecanoic acid] | marked modifications on the diffusion spectra | 
2 | O=C(N[C@H](CO)[C@H](O)c1ccc([N+](=O)[O-])cc1)C(Cl)Cl [chloramphenicol] | detected | 
3 | CN(C)CC/C=C1\c2ccccc2CSc2ccccc21 [dothiepin] | detected | 
4 | O=c1ccc2cc(O[C@@H]3O[C@H](CO)[C@@H](O)[C@H](O)[C@H]3O)c(O)cc2o1 [esculin] | detected | 
5 | mono-6-(cholest-5-en-3α-ylaamide)succinylamide-6-deoxy-2,2′,2″,2′″,2″″,2′″″,2″″″,6,6′,6″,6′″,6″″,6′″″,6″″″-trideca-O-methyl-cyclomaltoheptaose [example 1] |  | critical micellar concentration cmc [2]: 9.10^−6 mol/l; mean aggregate mass ([3]; aqueous solutions 2.5.10^−3, 5.10^−3 and 10^−2 mol/l): 43,000 g/mol; mean monomers per nanoparticle ([3]; from mean aggregate mass): 24; shape of aggregates ([4]; experimental spectrum superimposed with theoretical spectrum of spheres): spherical shape; mean number of monomers per nanoparticle ([4]; theoretical spectrum simulating spheres): 24
6 | vitamin A | detected | 
